# Assay results as given in patent publication US10029984B2, “Mono- or di-substituted indole derivatives as dengue viral replication inhibitors” (Janssen Pharmaceuticals, Inc., priority 2015, dated 2018).
# Test system: Vero cells
# Assay: in vitro
# Format: cell-based
# Settings: African green monkey
# Method in brief: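 On the same plates after eGFP read-out, resazurin was added and cells incubated a further 5 h at 37 °C, 5% CO2; resorufin fluorescence read with 530 nm excitation. CC50 is the concentration halving resazurin conversion versus cell control; SI = CC50/EC50.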
smiles,measurement,value
"COc1cc(NC(C(=O)c2c[nH]c3cc(OC)c(C)cc23)c2ccc(F)cc2OC)cc(S(C)(=O)=O)c1 (single isomer, unassigned) [Enantiomer 10B, 2-(4-fluoro-2-methoxyphenyl)-2-((3-methoxy-5-(methylsulfonyl)phenyl)amino)-1-(6-methoxy-5-methyl-1H-indol-3-yl)ethanone]",CC50,4.5 µM
